Measured values as given in patent publication US9884868B2, “TGF-beta inhibitors” (Rigel Pharmaceuticals, Inc., priority 2015, dated 2018).

What was measured:
[1] = test system: GDF8 signaling (p-SMAD-3 (Ser423/425)); assay: AlphaScreen SureFire SMAD3 (p-Ser423/425) assay, GDF8-stimulated cells (GDF pSMAD (MPC11)); assay type: cell-based; details: pSMAD3 readout, read-out: GDF8 (inhibition of GDF8 signaling
[2] = test system: TGF-β signaling (p-SMAD-3 (Ser423/425)); assay: AlphaScreen SureFire SMAD3 (p-Ser423/425) assay, TGF-β-stimulated cells (TGF-β pSMAD (MPC-11)); assay type: cell-based; details: pSMAD3 readout, read-out: TGF-β (inhibition of TGF-β signaling
HIS-TGF-βR2 WT = HIS-TGF-βR2 WT (Homo sapiens (Human), UniProt P37173); assay: HTRF probe displacement assay with HIS-TGF-βR2 WT; details: read-out: TGFBr2 IC50; HTRF probe displacement, 1 nM HIS-TGF-βR2 WT, 1 hour at room temperature
Sequence of HIS-TGF-βR2 WT (P37173 23-567): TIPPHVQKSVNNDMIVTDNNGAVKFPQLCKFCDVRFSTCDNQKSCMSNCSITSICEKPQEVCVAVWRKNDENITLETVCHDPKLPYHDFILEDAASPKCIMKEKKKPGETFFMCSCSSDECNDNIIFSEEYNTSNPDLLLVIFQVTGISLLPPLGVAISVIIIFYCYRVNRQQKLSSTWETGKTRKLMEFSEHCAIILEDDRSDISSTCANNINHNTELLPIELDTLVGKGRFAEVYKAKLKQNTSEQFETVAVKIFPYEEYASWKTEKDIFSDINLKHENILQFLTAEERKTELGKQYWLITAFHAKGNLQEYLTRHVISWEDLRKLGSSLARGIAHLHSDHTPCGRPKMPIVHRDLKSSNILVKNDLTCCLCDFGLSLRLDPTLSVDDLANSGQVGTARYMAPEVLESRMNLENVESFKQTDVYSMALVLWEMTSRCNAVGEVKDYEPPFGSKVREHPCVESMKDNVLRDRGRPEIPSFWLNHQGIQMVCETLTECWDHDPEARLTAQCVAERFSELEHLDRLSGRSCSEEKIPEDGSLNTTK

HIS-TGF-βR1 T204D = HIS-TGF-βR1 T204D (Homo sapiens (Human), UniProt P36897, T204D); assay: HTRF probe displacement assay with HIS-TGF-βR1 T204D; details: read-out: TGFbr1 IC50; HTRF probe displacement, 1 nM HIS-TGF-βR1 T204D, 1 hour at room temperature
Sequence of HIS-TGF-βR1 T204D (P36897 34-503 T204D): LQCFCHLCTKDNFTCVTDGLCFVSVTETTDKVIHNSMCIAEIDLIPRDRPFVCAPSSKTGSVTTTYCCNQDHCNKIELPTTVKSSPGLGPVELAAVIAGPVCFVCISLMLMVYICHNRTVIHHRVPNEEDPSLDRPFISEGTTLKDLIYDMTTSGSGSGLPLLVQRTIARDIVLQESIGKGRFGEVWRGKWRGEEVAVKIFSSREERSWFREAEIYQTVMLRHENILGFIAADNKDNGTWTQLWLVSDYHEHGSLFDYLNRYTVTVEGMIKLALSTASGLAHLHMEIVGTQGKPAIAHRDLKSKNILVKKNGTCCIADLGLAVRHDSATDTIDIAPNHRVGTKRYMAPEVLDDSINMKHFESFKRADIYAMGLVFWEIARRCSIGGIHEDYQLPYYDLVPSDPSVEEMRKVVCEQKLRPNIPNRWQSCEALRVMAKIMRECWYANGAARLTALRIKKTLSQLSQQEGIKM

IC50 [1] [nM]	IC50 [2] [nM]	IC50 (HIS-TGF-βR2 WT) [nM]	IC50 (HIS-TGF-βR1 T204D) [nM]	Compound
70.2	–	–	–	5-(benzo[d]thiazol-6-yl)-4-(3-chlorophenyl)thiazol-2-amine [Compound 166]
10	20	–	–	Cc1cc(-c2ncn(C)c2-c2ccc3cn[nH]c3c2)ccc1F [Compound 5, 6-(4-(4-Fluoro-3-methylphenyl)-1-methyl-1H-imidazol-5-yl)-1H-indazole]
40	150	–	–	Cc1cc(-c2ncn(C)c2-c2ccc3cn[nH]c3c2)ccc1F [Compound 7, 6-(4-(4-Fluoro-3-methylphenyl)-1-methyl-1H-imidazol-5-yl)-1H-indazole]
–	–	> 15000	5.2	CC(C)(O)CCn1cnc(-c2ccc(F)c(Cl)c2)c1-c1ccc2ncc(C(N)=O)n2n1 [139′, 6-(4-(3-chloro-4-fluorophenyl)-1-(3-hydroxy-3-methylbutyl)-1H-imidazol-5-yl)imidazo[1,2-b]pyridazine-3-carboxamide]
–	–	> 15000	43.8	CC(C)(C)C(=O)NCc1cnc2ccc(-c3c(-c4ccc(F)cc4)ncn3CC(F)F)nn12 [Example 202′, N-((6-(1-(2,2-difluoroethyl)-4-(4-fluorophenyl)-1H-imidazol-5-yl)imidazo[1,2-b]pyridazin-3-yl)methyl)pivalamide]
–	–	> 15000	426	COC(=O)Nc1cnc2ccc(-c3c(-c4ccc(F)cc4)ncn3CC(F)F)cn12 [Example 284′, methyl (6-(1-(2,2-difluoroethyl)-4-(4-fluorophenyl)-1H-imidazol-5-yl)imidazo[1,2-a]pyridin-3-yl)carbamate]
–	–	> 15000	3.5	N#Cc1cnc2ccc(-c3c(-c4ccc(F)cc4)ncn3C3CCCCC3O)nn12 (stereo not drawn) [17′, 6-(4-(4-fluorophenyl)-1-(2-hydroxycyclohexyl)-1H-imidazol-5-yl)imidazo[1,2-b]pyridazine-3-carbonitrile]
–	–	> 15000	3.1	N#Cc1cnc2ccc(-c3c(-c4ccc(F)c(Cl)c4)ncn3C3CCOCC3)nn12 [48′, 6-(4-(3-chloro-4-fluorophenyl)-1-(tetrahydro-2H-pyran-4-yl)-1H-imidazol-5-yl)imidazo[1,2-b]pyridazine-3-carbonitrile]
–	–	> 15000	27.2	NC(=O)c1cnc2ccc(-c3c(-c4ccc(F)cc4)nc4n3CCN(CC(F)F)C4)cn12 [Example 294′, 6-(7-(2,2-difluoroethyl)-2-(4-fluorophenyl)-5,6,7,8-tetrahydroimidazo[1,2-a]pyrazin-3-yl)imidazo[1,2-a]pyridine-3-carboxamide]
–	–	> 15000	2.1	NC(=O)c1cnc2ccc(-c3c(-c4ccc(F)cc4)ncn3C3CCC(F)(F)C3)nn12 (stereo not drawn) [108′, 6-(1-(3,3-difluorocyclopentyl)-4-(4-fluorophenyl)-1H-imidazol-5-yl)imidazo[1,2-b]pyridazine-3-carboxamide]
–	–	> 15000	1	NC(=O)c1cnc2ccc(-c3c(-c4cc(Cl)c(F)cc4F)ncn3CC(F)F)cn12 [235′, 6-(4-(5-chloro-2,4-difluorophenyl)-1-(2,2-difluoroethyl)-1H-imidazol-5-yl)imidazo[1,2-a]pyridine-3-carboxamide]
–	–	> 15000	52.7	COC(=O)N1CC(n2cnc(-c3ccc(F)cc3)c2-c2ccc3ncc(C#N)n3n2)C1 [Example 190′, methyl 3-(5-(3-cyanoimidazo[1,2-b]pyridazin-6-yl)-4-(4-fluorophenyl)-1H-imidazol-1-yl)azetidine-1-carboxylate]
–	–	> 15000	9.5	CC(C)(C)NC(=O)NCc1cnc2ccc(-c3c(-c4ccc(F)cc4)ncn3CC(F)F)nn12 [Example 199′, 1-(tert-butyl)-3-((6-(1-(2,2-difluoroethyl)-4-(4-fluorophenyl)-1H-imidazol-5-yl)imidazo[1,2-b]pyridazin-3-yl)methyl)urea]

Compound	IC50 [1] [nM]	IC50 [2] [nM]	IC50 (HIS-TGF-βR2 WT) [nM]	IC50 (HIS-TGF-βR1 T204D) [nM]
CCc1nc(-c2cc(C)cc(F)c2)c(-c2ccc3[nH]ncc3c2)[nH]1 [Compound 142, 5-(2-Ethyl-4-(3-fluoro-5-methylphenyl)-1H-imidazol-5-yl)-1H-indazole]	670	4390	–	–
